Calls of active or inactive are those of the source. The calls are words filed in the database; no cut-off is given here. Peptide text beside a SMILES is read from it. * marks the point of attachment. Cbz = O=C(OCc1ccccc1)*

As a reminder, the IC50 is the concentration at which inhibition is half-maximal. One may read the DC50 as the midpoint of the concentration-degradation curve.

Data set [1] concerns the target T1, Estrogen receptor (Homo sapiens) (UniProt P03372).
T1 sequence (whole entry): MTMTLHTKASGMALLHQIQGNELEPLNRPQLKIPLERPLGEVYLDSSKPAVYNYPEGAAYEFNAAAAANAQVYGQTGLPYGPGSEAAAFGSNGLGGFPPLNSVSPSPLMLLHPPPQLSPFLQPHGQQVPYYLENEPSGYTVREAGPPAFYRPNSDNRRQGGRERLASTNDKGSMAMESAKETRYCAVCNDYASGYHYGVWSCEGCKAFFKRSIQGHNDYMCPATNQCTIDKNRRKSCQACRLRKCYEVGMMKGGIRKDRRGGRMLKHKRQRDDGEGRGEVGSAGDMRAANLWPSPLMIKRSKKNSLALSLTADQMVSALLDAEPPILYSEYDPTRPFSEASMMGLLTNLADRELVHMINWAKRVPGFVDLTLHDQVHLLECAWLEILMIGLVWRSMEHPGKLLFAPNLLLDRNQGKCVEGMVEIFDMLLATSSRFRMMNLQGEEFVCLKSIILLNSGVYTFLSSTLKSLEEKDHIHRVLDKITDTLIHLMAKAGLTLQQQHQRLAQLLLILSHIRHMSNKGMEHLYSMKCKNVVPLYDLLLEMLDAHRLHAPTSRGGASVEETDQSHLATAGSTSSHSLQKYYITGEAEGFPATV
Kind of data set: Binding affinity to ERalpha (unknown origin) assessed as relative binding affinity incubated for 2 hrs in presence of coumestrol by fluorescence polarization based competitive binding assay relative to estradiol. On the technique in general: In fluorescence polarisation assays a small probe gives low polarisation when free and higher when bound to something large.

In data set [2] the test system is MCF7. Kind of data set: Antiproliferative activity against human MCF7 cells assessed as reduction in cell viability incubated for 48 hrs by MTT assay. It counts as functional, cell-based. The note with it: MCF7, 48 h. In general terms: Formazan colour is commonly taken as a measure of viable cells.
Data set [3] has as its target Estrogen receptor beta (Homo sapiens) (UniProt Q92731). The data set is described as follows: Binding affinity to ERbeta (unknown origin) assessed as relative binding affinity incubated for 2 hrs in presence of coumestrol by fluorescence polarization based competitive binding assay relative to estradiol.
In data set [4] the target is T2, von Hippel-Lindau disease tumor suppressor/Estrogen receptor (Homo sapiens, UniProt P03372+P40337). Kind of data set: PROTAC activity at VHL/ERalpha in human MCF7 cells assessed as induction of ERalpha degradation at 5 uM by Western blot analysis. It counts as cell-based. (In general: Immunoblotting shows a protein as a band on a membrane.)
Target sequence in this assay (P40337 whole entry, looked up, one chain of several): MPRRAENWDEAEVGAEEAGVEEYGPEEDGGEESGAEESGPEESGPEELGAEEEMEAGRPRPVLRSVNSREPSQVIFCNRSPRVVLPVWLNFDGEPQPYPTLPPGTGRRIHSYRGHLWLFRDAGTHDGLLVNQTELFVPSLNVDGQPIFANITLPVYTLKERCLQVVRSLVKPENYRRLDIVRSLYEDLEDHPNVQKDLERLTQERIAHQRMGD
Data set [5] concerns DU-145. Kind of data set: Antiproliferative activity against human DU-145 cells assessed as reduction in cell viability incubated for 48 hrs by MTT assay. It counts as functional, cell-based. The note with it: DU-145, 48 h.
A short description of data set [6]: Selectivity ratio of RBA for ERalpha (unknown origin) to RBA for ERbeta (unknown origin).
The subject of data set [7] is MCF7. The data set is described as follows: Effect on ERalpha expression in human MCF7 cells at 5 uM incubated for 24 hrs by Western blot analysis. Type of data set: functional, cell-based.
Data set [8] can be described thus: Drug uptake in ER positive human MCF7 cells assessed as increase in red fluorescence at 10 uM incubated for 30 mins in glucose-depleted DMEM medium by confocal laser scanning microscopic analysis. As to conditions: mcf7, 0.5 h. Type of data set: ADME, cell-based.
Data set [9] concerns the target T2, von Hippel-Lindau disease tumor suppressor/Estrogen receptor. The data set is described as follows: PROTAC activity at VHL/ERalpha in human MCF7 cells assessed as induction of ERalpha degradation at 0.05 to 0.5 uM incubated for 24 hrs in presence of 4-OHT by Western blot analysis. It counts as cell-based. As to conditions: dose 0.05-0.5 µM.
Target sequence in this assay (P40337 whole entry, looked up, one chain of several): as above
Data set [10] has the same target. Kind of data set: PROTAC activity at VHL/ERalpha in human MCF7 cells assessed as induction of ERalpha degradation at 0.5 uM incubated for 24 hrs in presence of VHL ligand by Western blot analysis. Type of data set: cell-based.
Target sequence in this assay (P40337 whole entry, looked up, one chain of several): as above
Data set [11] can be described thus: Drug uptake in ER positive human MCF7 cells assessed as increase in red fluorescence at 10 uM incubated for 30 mins in glucose-depleted DMEM medium in presence of estradiol by confocal laser scanning microscopic analysis. It counts as ADME, cell-based. The note with it: mcf7, 0.5 h.
Data set [12] can be described thus: GSH reactivity of compound assessed as change in fluorescence response. It counts as physicochemical.
A short description of data set [13]: Chemical reactivity of compound to glycine assessed as change in fluorescence response. It counts as physicochemical.
Data set [14] concerns the target T2, von Hippel-Lindau disease tumor suppressor/Estrogen receptor. The data set is described as follows: PROTAC activity at VHL/ERalpha in human MCF7 cells assessed as induction of ERalpha degradation at 0.5 uM incubated for 24 hrs in presence of MG132 by Western blot analysis. It counts as cell-based.
Target sequence in this assay (P40337 whole entry, looked up, one chain of several): as above
Data set [15] is described as follows: Photostability of the compound in DMSO/PBS solution assessed as decrease in fluorescence intensity at 466 nm excitation with Hamamatsu LC8 lightning cure (300 W) light for 2 hrs by fluorescence based analysis relative to initial value. It counts as physicochemical. Also noted: dose or concentration left out as unconfirmed. As to conditions: read-out: Activity.

Data set [16] can be described thus: Chemical reactivity of compound to NaHCO3 assessed as change in fluorescence response. It counts as physicochemical.
A short description of data set [17]: Chemical reactivity of compound to MgCl2 assessed as change in fluorescence response. It counts as physicochemical.
The nature of data set [18]: Chemical reactivity of compound to NaNO2 assessed as change in fluorescence response. It counts as physicochemical.
Data set [19] is described as follows: Chemical reactivity of compound to KCl assessed as change in fluorescence response. It counts as physicochemical.
Data set [20] is described as follows: Chemical reactivity of compound to CaCl2 assessed as change in fluorescence response. Type of data set: physicochemical.
A short description of data set [21]: Chemical reactivity of compound to methionine assessed as change in fluorescence response. It counts as physicochemical.
Data set [22] can be described thus: Drug uptake in human MCF7 cells assessed as increase in red fluorescence at 10 uM measured after 24 hrs by confocal laser scanning microscopic analysis. Type of data set: ADME, cell-based. The note with it: mcf7, 24 h.
In data set [23] the target is T2, von Hippel-Lindau disease tumor suppressor/Estrogen receptor. The data set is described as follows: PROTAC activity at VHL/ERalpha in human MCF7 cells assessed as induction of ERalpha degradation incubated for 24 hrs by Western blot analysis. Type of data set: cell-based.
Target sequence in this assay (P40337 whole entry, one chain of several): as the sequence (P40337 whole entry, looked up, one chain of several) above
Data set [24] in a line: Chemical reactivity of compound to […] assessed as change in fluorescence response. It counts as physicochemical.
In data set [25] the target is T2, von Hippel-Lindau disease tumor suppressor/Estrogen receptor. The data set is described as follows: PROTAC activity at VHL/ERalpha in human MCF7 cells assessed as induction of ERalpha degradation by measuring decrease in green fluorescence at 10 uM measured after 24 hrs by anti-ERalpha based immunofluorescence analysis. Type of data set: cell-based.
Target sequence in this assay (P40337 whole entry, looked up, one chain of several): as above
The nature of data set [26]: Chemical reactivity of compound to lysine assessed as change in fluorescence response. Type of data set: physicochemical.

Chain of Estrogen receptor beta (Homo sapiens) (Q92731 whole entry): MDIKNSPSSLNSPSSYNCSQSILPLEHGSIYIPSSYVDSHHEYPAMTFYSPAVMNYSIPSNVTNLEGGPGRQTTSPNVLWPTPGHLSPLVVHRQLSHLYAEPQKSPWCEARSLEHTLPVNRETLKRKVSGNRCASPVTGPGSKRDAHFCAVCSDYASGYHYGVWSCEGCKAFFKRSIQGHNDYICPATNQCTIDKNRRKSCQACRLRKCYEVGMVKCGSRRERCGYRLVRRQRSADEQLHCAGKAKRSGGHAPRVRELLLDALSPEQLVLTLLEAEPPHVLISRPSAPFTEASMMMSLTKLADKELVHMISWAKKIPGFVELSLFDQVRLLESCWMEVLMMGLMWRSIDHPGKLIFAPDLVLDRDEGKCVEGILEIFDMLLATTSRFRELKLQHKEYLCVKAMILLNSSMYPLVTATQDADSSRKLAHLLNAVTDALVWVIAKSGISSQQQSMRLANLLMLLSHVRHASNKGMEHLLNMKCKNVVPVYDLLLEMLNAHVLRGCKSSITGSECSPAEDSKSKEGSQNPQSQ

`Cc1ncsc1-c1ccc([C@H](C)NC(=O)[C@@H]2C[C@@H](O)CN2C(=O)[C@@H](NC(=O)CCCCCCCCCCCOc2cc(O)ccc2/C=C/C2=CC(=C(C#N)C#N)c3cc(O)ccc3O2)C(C)(C)C)cc1`: the RBA in data set [1] worked out at 2.11%; in [3], 1.4%. The results for the IC50 in data set [2] and in data set [5] were 33500 nM and over 100000 nM, respectively. The result in [4] was Active. In addition, the Selectivity ratio in [6] was 1.51.

As for `Cc1ncsc1-c1ccc([C@H](C)NC(=O)[C@@H]2C[C@@H](O)CN2C(=O)[C@@H](NC(=O)CCCCCCCOc2cc(O)ccc2/C=C/C2=CC(=C(C#N)C#N)c3cc(O)ccc3O2)C(C)(C)C)cc1`, the RBA in [1] came to 2.48%; in data set [3], 0.65%. Besides, the half-inhibitory concentration (IC50) was 110 nM in data set [2] and over 100000 nM in [5]. In addition, the outcome in [4] was Active. In addition, the Selectivity ratio in data set [6] was found to be 3.79.

Consider `CC(C)C[C@@H](C=O)NC(=O)[C@H](CC(C)C)NC(=O)[C@H](CC(C)C)NC(=O)OCc1ccccc1` (Cbz-Leu-Leu-Leu-aldehyde), for which the result in data set [7] was inactive.

`C[C@]12CC[C@@H]3c4ccc(O)cc4C[C@@H](CCCCCCCCC[S+]([O-])CCCC(F)(F)C(F)(F)F)[C@H]3[C@@H]1CC[C@@H]2O` (stereo not given in full) [FULVESTRANT]: the concentration for half-maximal inhibition (IC50) in data set [2] was determined as 3 nM.

On to `Cc1ncsc1-c1ccc([C@H](C)NC(=O)[C@@H]2C[C@@H](O)CN2C(=O)[C@@H](NC(=O)CCCCCCCCCOc2cc(O)ccc2/C=C/C2=CC(=C(C#N)C#N)c3cc(O)ccc3O2)C(C)(C)C)cc1`, for which the figures for the Drug uptake result in data set [8], in data set [11] and in [22] were “Active”, “Not_active” and “Active”, respectively. The RBA worked out at 7.99% in data set [1] and 3.94% in data set [3]. The result in [9] and in data set [10] was inactive. The IC50 in [2] was 51 nM; in data set [5], over 100000 nM. Moreover, the Drug metabolism entry in data set [12] was “metabolite_notdetected”. The Activity result in data set [13] was “Not_active”; in data set [14], “Not active; Mg132 Partly Blocked The Degradation”; in data set [16], “Not_active”; in data set [17], “Not_active”; in data set [18] it was “Not_active”; in data set [19], “Not_active”. Further, the Activity entry in data set [20] is listed as “Not_active”; in data set [21], “Not_active”; in data set [24], “Not_active”; in data set [25] it was “Active; Nearly Complete Disappearance Of Fluorescence Observed”; in data set [26], “Not_active”. Further, the degraded at 2 h in [15] was under 5%. Further, the result in [4] was Active. Further, in [23], the half-maximal degradation concentration (DC50) was 120 nM. Moreover, in data set [6], the Selectivity ratio is 2.03.

In the case of `Cc1ncsc1-c1ccc([C@H](C)NC(=O)[C@@H]2C[C@@H](O)CN2C(=O)[C@@H](NC(=O)CCCCCOc2cc(O)ccc2/C=C/C2=CC(=C(C#N)C#N)c3cc(O)ccc3O2)C(C)(C)C)cc1`, the RBA in data set [1] stood at 3.69%; in [3] it was 2.48%. The IC50 in data set [2] and in data set [5] was over 100000 nM each time. Also, the result in data set [4] was Active. Further, the Selectivity ratio in data set [6] is 1.48.

The values above are taken from ChEMBL document CHEMBL6083176, “Fluorescence theranostic PROTACs for real-time visualization of ERα degradation” (Eur J Med Chem, 2024).
